Source: patent US8841290B2, “Substituted tetrahydronaphthalenes, method for the production thereof, and use thereof as drugs” (Sanofi, priority 2009, dated 2014)
In brackets after ≈: the same amount, converted by molar mass. Where two headings read alike, the source gives them in different places.

Key:
[1] = nephelometric (kinetic) solubility determination, phosphate buffer pH 7.4; type: physicochemical; conditions: for solubility kinetic: aqueous buffer, kinetic from dmso stock
Method: A DMSO solution of the test compound (2.5 mM; 0.5 μl) is pipetted into 200 μl of an aqueous test solution (e.g. phosphate-buffered saline, 10×, 1M, Sigma, adjusted to 10 mM, pH 7.4) in a 96-well microtiter plate, and the turbidity is measured at the resulting theoretical concentration for the test compound of 6.25 μM using a nephelometer (e.g. Nephelostar Galaxy, BMG Labtech). The concentration of the test compound in the aqueous test solution is then raised to a theoretical 12.5 μM by adding further DMSO solution (2.5 mM; 0.5 μl), and the turbidity measurement is repeated. Further additions of DMSO solutions (1 μl, 2.5 mM; 0.5 μl, 10 mM; then 9×1 μl, 10 mM resulting in theoretical concentrations of 25 μM, 50 μM, 100 μM, 150 μM, 200 μM, 250 μM, 300 μM, 350 μM, 400 μM, 450 μM and 500 μM) with turbidity measurement in between complete the measurement process.
Evaluation: The turbidity values from the nephelometer are plotted against the theoretical concentration of the test compound in the aqueous test solution. As soon as a significant turbidity is detected (e.g. 5 times above the control value of the aqueous test solution) at a theoretical concentration, the level of concentration below this is stated to be the solubility limit of the test compound in the test solution. Thus, the maximum possible measurement range emerges as values<6.25 μM, 6.25-500 μM and >500 μM.

human MCH receptor = target: T1, human MCH receptor (Homo sapiens, UniProt Q99705); test: calcium mobilization assay (FLIPR), functional IC50 of MCH1R antagonists; type: cell-based
T1 construct: expressed in transfected cells
T1 sequence (Q99705 whole entry): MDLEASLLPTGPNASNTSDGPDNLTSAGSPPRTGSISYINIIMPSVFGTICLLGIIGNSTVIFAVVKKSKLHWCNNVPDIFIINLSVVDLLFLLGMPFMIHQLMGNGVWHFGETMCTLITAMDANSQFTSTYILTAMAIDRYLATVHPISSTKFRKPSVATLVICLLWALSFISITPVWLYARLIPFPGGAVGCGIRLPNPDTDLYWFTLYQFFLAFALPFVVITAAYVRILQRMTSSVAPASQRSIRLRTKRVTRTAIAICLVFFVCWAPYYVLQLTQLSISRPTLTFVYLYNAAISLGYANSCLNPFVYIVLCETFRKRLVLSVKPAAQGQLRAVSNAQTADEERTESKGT
Description: A difference from the reference was, however, the use of the plasmid pEAK8 from EDGE Biosystems (USA) for the construction of the expression vector. The host used for the transfection was a transformed HEK cell line named “PEAK Stable Cells” (likewise from EDGE Biosystems). Functional measurements of the cellular calcium flux after addition of agonist (MCH) in the presence of ligand of the invention took place with the aid of the FLIPR apparatus from Molecular Devices (USA), using protocols of the apparatus manufacturer.

[2] = recombinant HEK293 cell line expressing the human MCH receptor, calcium flux after addition of agonist (MCH), read-out: IC50
[3] = nephelometry, Table 8, reference compounds versus inventive examples

Row | solubility kinetic ([1]; nephelometric, Table 7) [µg/mL] | IC50 (human MCH receptor; [2]) [nM] | pH 7.4 (solubility) [1, 3] [mg/ml] | IC50 (human MCH receptor) [nM] | SMILES | solubility kinetic [1, 3] [µg/mL]
1 | > 281 | 116 | – | – | CN(C(=O)c1ccc(OCC2CC2)cc1)[C@H]1CCc2cc(CNCC3CCOC3)ccc2C1 (some centres unmarked) [Example 1-04] | –
2 | > 279 | 831 | – | – | CN(C(=O)c1ccc(OCC2CC2)cc1)[C@H]1CCc2cc(CN3C[C@@H]4CC[C@H]3C4)ccc2C1 [Example 7-02] | –
3 | > 288 | 165 | – | – | CC1CCC(CNCc2ccc3c(c2)CC[C@H](N(C)C(=O)c2ccc(OCC4CC4)cc2)C3)O1 (some centres unmarked) [Example 1-12] | –
4 | > 272 | 92 | – | – | O=C(N[C@H]1CCc2cc(CN3C[C@@H]4CC[C@H]3C4)ccc2C1)c1ccc(OCC2CC2)cc1 [Example 7-14] | –
5 | > 280 | 370 | – | – | CCN1CCCCC1c1ccc2c(c1)CC[C@H](N(C)C(=O)c1ccc(OCC3CC3)cc1)C2 (some centres unmarked) [Example 5-07] | –
6 | 168 (≈ 376 µM) | 519 | – | – | CCN1[C@@H](c2ccc3c(c2)CC[C@H](N(C)C(=O)c2ccc(OCC4CC4)cc2)C3)CC[C@@H]1C [Example 5-05] | –
7 | > 266 | 420 | – | – | CN(C(=O)c1ccc(OCC2CC2)cc1)[C@H]1CCc2cc(CNCC3CC3)ccc2C1 [Example 7-08] | –
8 | > 266 | 1100 | – | – | CN(C(=O)c1ccc(OCC2CC2)cc1)[C@H]1CCc2cc(CNC3CCC3)ccc2C1 [Example 7-10] | –
9 | > 288 | 625 | – | – | COC1CCN(Cc2ccc3c(c2)CC[C@H](N(C)C(=O)c2ccc(OCC4CC4)cc2)C3)CC1 [Example 7-05] | –
10 | > 286 | 1370 | – | – | CN(C(=O)c1ccc(OCC2CC2)cc1)[C@H]1CCc2cc(CN3CC4CCC3CC4)ccc2C1 [Example 7-03] | –
11 | > 273 | 152 | – | – | CCN1CCC[C@@H]1c1ccc2c(c1)CC[C@H](N(C)C(=O)c1ccc(OCC3CC3)cc1)C2 [Example 5-02] | –
12 | 15 (≈ 29.8 µM) | 858 | – | – | CN(C(=O)c1ccc(OCC2CC2)cc1)[C@H]1CCc2cc([C@H]3CCCN3CC3CCOCC3)ccc2C1 [Example 5-03] | –
13 | > 280 | 336 | – | – | CN(C(=O)c1ccc(OCC2CC2)cc1)[C@H]1CCc2cc(CN3CCCCCC3)ccc2C1 [Example 7-15] | –
14 | > 288 | 154 | – | – | CN(C(=O)c1ccc(OCC2CC2)cc1)[C@H]1CCc2cc(CNCC3CCCOC3)ccc2C1 (some centres unmarked) [Example 1-07] | –
15 | 10 (≈ 23.9 µM) | 788 | – | – | CN(C(=O)c1ccc(OCC2CC2)cc1)[C@H]1CCc2cc(C3CCCCN3)ccc2C1 (stereo partly drawn) [Example 4-03, 4-Cyclopropylmethoxy-N-methyl-N—((S)-6-piperidin-2-yl-1,2,3,4-tetrahydronaphthalen-2-yl)-benzamide] | –

The remaining lines, values behind:

Row | SMILES | solubility kinetic ([1]; nephelometric, Table 7) [µg/mL] | IC50 (human MCH receptor; [2]) [nM] | pH 7.4 (solubility) [1, 3] [mg/ml] | IC50 (human MCH receptor) [nM] | solubility kinetic [1, 3] [µg/mL]
16 | O=C(N[C@H]1CCc2cc(CN3CCCCCC3)ccc2C1)c1ccc(OCC2CCC2)cc1 [Example 6-08] | < 4 | 168 | – | – | –
17 | COC[C@H](C)NCc1ccc2c(c1)CC[C@H](N(C)C(=O)c1ccc(OCC3CC3)cc1)C2 [Example 7-24] | > 275 | 384 | – | – | –
18 | CN1CCCC1c1ccc2c(c1)CC[C@H](N(C)C(=O)c1ccc(OCC3CC3)cn1)C2 (some centres unmarked) [Example 5-10] | 13 (≈ 31 µM) | 646 | – | – | –
19 | CN(C(=O)c1ccc(OCC2CC2)cc1)[C@H]1CCc2cc(CNCC3COCCO3)ccc2C1 (some centres unmarked) [Example 1-09] | > 289 | 124 | – | – | –
20 | CCCCOc1ccc(C(=O)N[C@H]2CCc3cc(CN4CC5CCC4C5)ccc3C2)cc1 (some centres unmarked) [Example 7-01] | 82 (≈ 190 µM) | 245 | – | – | –
21 | CC[C@H](O)COc1ccc(C(=O)N[C@H]2CCc3cc(CN4CCCC4)ccc3C2)cc1 [Example 6-02] | > 268 | 223 | >0.268 | – | –
22 | COCC(C)(C)CNCc1ccc2c(c1)CC[C@H](N(C)C(=O)c1ccc(OCC3CC3)cc1)C2 [Example 7-25] | > 289 | 286 | – | – | –
23 | CC[C@H](O)COc1ccc(C(=O)N(C)[C@H]2CCc3cc(CN4CCCC4)ccc3C2)cc1 [Example 6-04] | > 275 | 1200 | >0.275 | – | –
24 | O=C(N[C@H]1CCc2cc(CNCC3CCOCC3)ccc2C1)c1ccc(NC(=O)C(F)(F)F)cc1 [Example 2-04] | 15 (≈ 30.6 µM) | 3690 | – | – | –
25 | CN(C(=O)c1ccc(OCC2CC2)cn1)[C@H]1CCc2cc(C3CCCN3)ccc2C1 (stereo partly drawn) [Example 4-04, N-Methyl-N—((S)-6-pyrrolidin-2-yl-1,2,3,4-tetrahydronaphthalen-2-yl)-5-cyclopropylmethoxypyridine-2-carboxamide] | > 41 | 703 | – | – | –
26 | CN(C(=O)c1ccc(OCC2CC2)cn1)[C@H]1CCc2cc(CNCC3CCCC3)ccc2C1 [Example 7-30] | > 281 | 156 | – | – | –
27 | O=C(N[C@H]1CCc2cc(CN3CCCCCC3)ccc2C1)c1ccc(OCC2CC2)cc1 [Example 7-12] | 3 (≈ 6.93 µM) | 94 | – | – | –
28 | CC(C)COc1ccc(C(=O)N(C)[C@H]2CCc3cc(CNCC4CCOCC4)ccc3C2)nc1 [Example 2-09] | > 290 | 360 | – | – | –
29 | O=C(N[C@H]1CCc2cc(CN3CCCCCC3)ccc2C1)c1ccc(NC(=O)C2CCCC2)cc1 [Example 6-07] | < 4 | – | – | 332 | –
30 | CCN(CC)Cc1ccc2c(c1)CC[C@H](N(C)C(=O)c1ccc(OCC3CC3)cc1)C2 [Example 7-18] | > 267 | 668 | – | – | –
31 | CN(C(=O)c1ccc(C2CCCCC2)cc1)[C@H]1CCc2cc(CNCC3CCOCC3)ccc2C1 [Example 2-01, 4-Cyclohexyl-N-methyl-N—((S)-6-{[(tetrahydropyran-4-ylmethyl)amino]methyl}-1,2,3,4-tetrahydronaphthalen-2-yl)benzamide] | > 294 | 1330 | – | – | –
32 | CC1CCN(c2ccc(C(=O)N(C)[C@H]3CCc4cc(CNCC5CCOCC5)ccc4C3)cc2)CC1 [Example 2-03] | > 302 | 1070 | – | – | –
33 | CC(C)OCCNCc1ccc2c(c1)CC[C@H](N(C)C(=O)c1ccc(OCC3CC3)cc1)C2 [Example 7-26] | > 282 | 149 | – | – | –
34 | CN(C(=O)c1ccc(OCC2CC2)cc1)[C@H]1CCc2cc(CNCCC3CCCO3)ccc2C1 (some centres unmarked) [Example 1-10] | > 288 | 140 | – | – | –
35 | CN(C(=O)c1ccc(OCC2CC2)cc1)[C@H]1CCc2cc(CNCC3(C)CCOCC3)ccc2C1 [Example 1-08] | > 295 | 126 | – | – | –
36 | CCCCOc1ccc(C(=O)N(C)[C@H]2CCc3cc(CN4CCCC4)ccc3C2)cc1 [Example 6-03] | > 267 | 327 | >0.267 | – | –
37 | CCOCCCNCc1ccc2c(c1)CC[C@H](N(C)C(=O)c1ccc(OCC3CC3)cc1)C2 [Example 7-20] | > 282 | 133 | – | – | –
38 | CN(C(=O)c1ccc(OCC2CC2)cn1)[C@H]1CCc2cc(CN3CCCCCC3)ccc2C1 [Example 7-27] | 168 (≈ 375 µM) | 756 | – | – | –
39 | CCOCCNCc1ccc2c(c1)CC[C@H](N(C)C(=O)c1ccc(OCC3CC3)cc1)C2 [Example 7-23] | > 275 | 108 | – | – | –
40 | CN(C(=O)c1ccc(-c2ccc(F)cc2)cc1)[C@H]1CCc2cc(CN3CCCC3)ccc2C1 [Ref-2, reference compound] | – | – | – | – | 7 (≈ 15.8 µM)
41 | O=C(N[C@H]1CCc2cc(CN3CCCC3)ccc2C1)c1ccc(-c2ccc(F)cc2)cc1 [Ref-1, reference compound] | – | – | – | – | 3 (≈ 7 µM)
